Laboratory results taken from article PMC12845261, “Design, Synthesis, and Biological Evaluation of N-Acyl-Hydrazone-Linked Quinazolinone Derivatives with Antioxidant, Antimicrobial, and Anticancer Potential” (Pharmaceuticals, 2025).
Values after ≈ are worked out from the molar mass of the structure shown. Values joined by “and” are separate entries in the source; they are usually repeats but may differ in a detail not shown here. Equal values may be shown once.

Columns and labels:
S. aureus ATCC 25923 [1] = experiment: Microbicidal activity (MMC); format: cell-based; conditions: DMSO control 5
Protocol: (§1) For the evaluation of antimicrobial activity, the following reference strains were used: S. aureus ATCC 25923, E. faecalis ATCC 29212, E. coli ATCC 25922, P. aeruginosa ATCC 27853 and C. albicans ATCC 10231. To determine the MMCs, 5 μL of culture was taken from each well and distributed on solid medium. The plates were incubated for 20–24 h at 37 °C. The lowest concentration at which no microbial growth was observed was considered MMC.

P. aeruginosa ATCC 27853 [2] = experiment: Microbicidal activity (MMC); format: cell-based; conditions: DMSO control 2.5
Protocol: as §1

E. faecalis ATCC 29212 [3] = experiment: Microbicidal activity (MMC); format: cell-based; conditions: DMSO control >5
Protocol: as §1

C. albicans ATCC 10231 [4] = experiment: Microbial adhesion, crystal violet (MICMA); format: cell-based; conditions: DMSO control 1.25
Protocol: (§2) For the evaluation of antimicrobial activity, the following reference strains were used: S. aureus ATCC 25923, E. faecalis ATCC 29212, E. coli ATCC 25922, P. aeruginosa ATCC 27853 and C. albicans ATCC 10231.
(§3) Following quantitative analysis of antimicrobial activity, microbial adhesion was evaluated after methanol fixation and violet crystal staining (0.1%). The absorbance of the adhered biomass colored with violet crystal and resuspended in 33% acetic acid was measured at 490 nm.

S. aureus ATCC 25923 [5] = experiment: Microbial adhesion, crystal violet (MICMA); format: cell-based; conditions: DMSO control 5
Protocol: as §2, §3

E. faecalis ATCC 29212 [6] = experiment: Microbial adhesion, crystal violet (MICMA); format: cell-based; conditions: DMSO control 2.5
Protocol: as §2, §3

E. coli ATCC 25922 [7] = experiment: Microbial adhesion, crystal violet (MICMA); format: cell-based; conditions: DMSO control 5
Protocol: as §2, §3

[8] = Total antioxidant capacity (TAC), DPPH method; conditions: 30 min, 517 nm, compound stock 1 mg/mL in methanol, reference ascorbic acid TAC = 100%
Protocol: The total antioxidant capacity (TAC) was evaluated using diphenyl-1-picrylhydrazyl free radical (DPPH) method. The TAC value was determined in relation to the antioxidant capacity of the reference (ascorbic acid, TAC = 100%). […] The maximum value was recorded for 1c (~45%), followed by 1f and 1a (~43%), while the minimum for 1e (~19%).
In this study, the TAC values were obtained using the most-known DPPH method, in which the intense violet colour of the free radical solution is decreasing. Stock solutions of compounds 1a–1f and 2 were prepared in absolute methanol at a concentration of 1 mg/mL. A stock solution of 2,2-diphenyl-1-picrylhydrazyl free radical was obtained in the same solvent, at a concentration of 2 × 10^−4 M. To 1.8 mL of DPPH solution was added 0.2 mL of each solution of the compounds 1a–1f and 2 and the mixture was left in the dark for 30 min, followed by measurements of the absorbance at 517 nm. The following equation was used to calculate TAC: TAC%=Abs0 min−Abs30 min/Abs0min·100 where Abs0 min refers to the initial absorbance of the DPPH free radical solution, and Abs 30 min refers to the absorbance of the solution of DPPH and the added compound after 30 min. Ascorbic acid was used as a reference.

C. albicans ATCC 10231 [9] = experiment: Qualitative antimicrobial activity, adapted Kirby-Bauer (inhibition zone); format: cell-based; conditions: 10 μL of 10 mg/mL DMSO stock, mean ± SD
Protocol: (§4) For the evaluation of antimicrobial activity, the following reference strains were used: S. aureus ATCC 25923, E. faecalis ATCC 29212, E. coli ATCC 25922, P. aeruginosa ATCC 27853 and C. albicans ATCC 10231. The microbial suspensions were prepared at a density of 1.5 × 10^8 CFU/mL, corresponding to the McFarland 0.5 nephelometric standard. These suspensions were obtained from 18–24 h cultures developed on solid media (Mueller-Hinton for bacteria, Sabouraud for yeast). Antimicrobial activity was assessed using an adapted Kirby-Bauer method according to CLSI (Clinical and Laboratory Standards Institute). In addition to the 10 mg/mL stock solutions prepared in DMSO for each compound, a solvent control was used. Each stock solution (10 μL) was distributed in spot on the medium inoculated with the interest strain. After measuring the diameter of the inhibition zone (IZD) around the spot (mm), the results were expressed as the mean ± standard deviation (SD) for each compound tested in duplicate.

S. aureus ATCC 25923 [10] = experiment: as above; format: cell-based; conditions: 10 μL of 10 mg/mL DMSO stock, mean ± SD
Protocol: as §4

P. aeruginosa ATCC 27853 [11] = experiment: as above; format: cell-based; conditions: 10 μL of 10 mg/mL DMSO stock, mean ± SD
Protocol: as §4

E. faecalis ATCC 29212 [12] = experiment: as above; format: cell-based; conditions: 10 μL of 10 mg/mL DMSO stock, mean ± SD
Protocol: as §4

E. coli ATCC 25922 [13] = experiment: as above; format: cell-based; conditions: 10 μL of 10 mg/mL DMSO stock, mean ± SD
Protocol: as §4

C. albicans ATCC 10231 [14] = experiment: Quantitative antimicrobial activity, serial binary microdilution (MIC, IC50); format: cell-based; conditions: Candida albicans, ATCC10231, 24 h, 37 °C, DMSO control 1.25
Protocol: as §2
(§5) Quantitative analysis was performed using the method of serial binary microdilutions in liquid medium (Tryptone Soy Broth for bacteria and Sabouraud Broth for yeasts) in plates with 96 wells. Stock solutions of 10 mg/mL were made in DMSO, and the range of concentrations tested for each compound was 5000–0.16 μg/mL. Simultaneously, the DMSO control was carried out under the same working conditions. Each well was inoculated with 10 μL of microbial suspension, adjusted to a density of 1.5 × 10^8 CFU/mL prepared from 18 to 24 h cultures. After 24 h of incubation at 37 °C, microbial growth and multiplication were evaluated both macroscopically and spectrophotometrically at 620 nm to establish the MIC values. […] Blanks were made for each sample concentration, and the formula was applied: Microbial viability(%)=Asample−Ablank/Astrain control−Asterility control·100

S. aureus ATCC 25923 [15] = experiment: as above; format: cell-based; conditions: S. aureus ATCC 25923, 24 h, 37 °C, DMSO control 2.5; for MIC: Staphylococcus aureus, ATCC25923
Protocol: as §2, §5

P. aeruginosa ATCC 27853 [16] = experiment: as above; format: cell-based; conditions: Pseudomonas aeruginosa, ATCC27853, 24 h, 37 °C, DMSO control 1.25
Protocol: as §2, §5

E. faecalis ATCC 29212 [17] = experiment: as above; format: cell-based; conditions: Enterococcus faecalis, ATCC29212, 24 h, 37 °C, DMSO control 2.5
Protocol: as §2, §5

E. coli ATCC 25922 [18] = experiment: as above; format: cell-based; conditions: Escherichia coli, ATCC25922; E. coli ATCC 25922; 24 h, 37 °C; DMSO control 1.25
Protocol: as §2, §5

C. albicans ATCC 10231 [19] = experiment: Microbicidal activity (MMC); format: cell-based; conditions: DMSO control 5
Protocol: as §1

Row | SMILES | MMC (S. aureus ATCC 25923 [1]) [mg/mL] | MMC (P. aeruginosa ATCC 27853 [2]) [mg/mL] | MMC (E. faecalis ATCC 29212 [3]) [mg/mL] | MICMA (C. albicans ATCC 10231 [4]) [mg/mL] | MICMA (S. aureus ATCC 25923 [5]) [mg/mL] | MICMA (E. faecalis ATCC 29212 [6]) [mg/mL] | MICMA (E. coli ATCC 25922 [7]) [mg/mL] | TAC (%) [8] | IZD (mm) (C. albicans ATCC 10231 [9]) | IZD (mm) (S. aureus ATCC 25923 [10]) | IZD (mm) (P. aeruginosa ATCC 27853 [11]) | IZD (mm) (E. faecalis ATCC 29212 [12]) | IZD (mm) (E. coli ATCC 25922 [13]) | MIC (C. albicans ATCC 10231 [14]) [µg/mL] | MIC (mg/mL) (S. aureus ATCC 25923 [15]) | MIC (S. aureus ATCC 25923 [15]) [µg/mL] | MIC (P. aeruginosa ATCC 27853 [16]) [µg/mL] | MIC (E. faecalis ATCC 29212 [17]) [µg/mL] | MIC (E. coli ATCC 25922 [18]) [µg/mL] | MMC (C. albicans ATCC 10231 [19]) [mg/mL]
1 | COc1ccc(O)c(/C=N/NC(=O)Cn2c(C)nc3ccccc3c2=O)c1 [Compound 1e, N′-[(E)-(2-hydroxy-5-methoxyphenyl)methylidene]-2-(2-methyl-4-oxoquinazolin-3(4H)-yl)acetohydrazide] | 5 | 5 | >5 | 2.5 | 2.5 | 5 | 5 | 19.3% | 0.00 ± 0.00 | 0.00 ± 0.00 | 0.00 ± 0.00 | 0.00 ± 0.00 | 0.00 ± 0.00 | 1250 (≈ 3.41 mM) | specifically active | 1250 (≈ 3.41 mM) | 5000 (≈ 13.6 mM) | 5000 (≈ 13.6 mM) | 5000 (≈ 13.6 mM) | 
2 | Cc1nc2ccccc2c(=O)n1CC(=O)NN [Compound 2, 2-(2-methyl-4-oxoquinazolin-3(4H)-yl)acetohydrazide] | >5 | 5 | >5 |  | 2.5 | >5 | 1.25 | 19.7% | 6.33 ± 1.53 | 0.00 ± 0.00 | 0.00 ± 0.00 | 0.00 ± 0.00 | 0.00 ± 0.00 | 1250 (≈ 5.38 mM) |  | 2500 (≈ 10.8 mM) | 1250 (≈ 5.38 mM) | 2500 (≈ 10.8 mM) | 1250 (≈ 5.38 mM) | 5
3 | COc1ccc(/C=N/NC(=O)Cn2c(C)nc3ccccc3c2=O)c(O)c1 [Compound 1d, N′-[(E)-(2-hydroxy-4-methoxyphenyl)methylidene]-2-(2-methyl-4-oxoquinazolin-3(4H)-yl)acetohydrazide] | >5 |  | >5 | 1.25 | 2.5 | 5 | 2.5 | 19.3% and 20.5% | 0.00 ± 0.00 | 0.00 ± 0.00 | 0.00 ± 0.00 | 0.00 ± 0.00 | 0.00 ± 0.00 | 5000 (≈ 13.6 mM) |  | 2500 (≈ 6.82 mM) | 1250 (≈ 3.41 mM) | 5000 (≈ 13.6 mM) | 1250 (≈ 3.41 mM) | >5
